The values below are quoted from earlier work in publication PMC9689602, “Evaluation of ^68Ga-Radiolabeled Peptides for HER2 PET Imaging” (Diagnostics, 2022).

Like-named read-outs stand apart in the source and are kept apart here.

For data set [1], the target named is HER2. As to the method:
Peptide imaging agents allow for quicker injection to imaging times along with a potential decrease in dose to the patient by using a shorter-lived radioisotope. Radiolabeled peptides are currently used in the clinic for the diagnosis of several cancer types. A widely used example is [^68Ga]DOTATATE (NETSPOT®) which was given FDA approval in 2016 and is used for imaging somatostatin receptor type 2 on neuroendocrine cancer with patient imaging 40 to 90 min after intravenous administration. Several HER2-targeting peptides have been reported which could have the potential to be ...

The target in data set [2] is KCCYSL peptide.
In data set [3] the test system is mice. Particulars: up to 1 g/kg intravenous injection. An excerpt: One drawback for peptides is their susceptibility to degradation from proteases present within organisms. […] Phosphoramidon can be used as an aid to protect peptides from quick degradation when evaluating our peptides in vivo. […] We are using phosphoramidon as a to ...

As for DTFPYLGWWNPNEYRY, the Kd in data set [1] (highest affinity in OBOC library, read-out: affinity (Kd)) is 0.0186 µM.
KCCYSL: in data set [1] (binding to HER2, read-out: equilibrium dissociation constant), the Kd was 30 µM.
Take HER2 (from UniProt P04626): the Kd in data set [2] was 30 µM.
Regarding `CC(C)C[C@H](NP(=O)(O)O[C@@H]1O[C@@H](C)[C@H](O)[C@@H](O)[C@H]1O)C(=O)N[C@@H](Cc1c[nH]c2ccccc12)C(=O)O` [phosphoramidon, Phosphoramidon], in data set [3], the toxicity in mice result is “low toxicity and no death”.
